Assay results taken from patent US10479789B2, “Pyrido[1,2-A]pyrimidone analog, crystal form thereof, intermediate thereof and preparation method therefor” (Chia Tai Tianqing Pharmaceutical Group Co., Ltd., priority 2015, dated 2019).

Legend:
PI3K (p110α) = biological target: T1, PI3K (p110α) (Homo sapiens, UniProt P42336); assay: ADP-Glo Assay I, in vitro enzyme activity; format: biochemical; details: 0.33 nM PI3Kalpha
T1 construct: purchased Millipore 14-602-K
Description: The test compounds were diluted with a three-fold concentration gradient, and 10 concentrations (10000 nM to 0.5 nM) were obtained in total.
50 nL of the test compounds of the present invention was transferred to a reaction plate (PerkinElmer #6007299), and added with 3 μL of an enzyme/substrate mixture (0.33 nM PI3Kalpha, Millipore #14-602-K/166.5 μM PIP2); after incubation for 20 min, 2 μL of an ATP solution (100 μM) was added to initiate the reaction; after 2 hours of reaction at room temperature, the kinase reaction was stopped by adding 5 μL ADP-Glo reagent, followed by incubation at room temperature for 60 min, allowing the remaining unreacted ATP to be completely digested; and the resulting solution was added with 10 μL of a kinase detection reagent and incubated at room temperature for 40 min, and then the […] was read on Envision. PIP2, ATP, the ADP-Glo reagent, and the kinase assay reagents are all from an ADP-Glo Kinase Assay Kit (Promega #V1792).
IC50 was calculated using the standard 4-parameter fitting method (Model 205, XL-fit, iDBS).

PI3Kα = PI3Kα (Homo sapiens, UniProt P42336); assay: ADP-Glo Assay II, PI3Kα; format: biochemical; details: read-out: IC50 for inhibition of PI3Kα activity
Chain of PI3Kα (P42336 whole entry): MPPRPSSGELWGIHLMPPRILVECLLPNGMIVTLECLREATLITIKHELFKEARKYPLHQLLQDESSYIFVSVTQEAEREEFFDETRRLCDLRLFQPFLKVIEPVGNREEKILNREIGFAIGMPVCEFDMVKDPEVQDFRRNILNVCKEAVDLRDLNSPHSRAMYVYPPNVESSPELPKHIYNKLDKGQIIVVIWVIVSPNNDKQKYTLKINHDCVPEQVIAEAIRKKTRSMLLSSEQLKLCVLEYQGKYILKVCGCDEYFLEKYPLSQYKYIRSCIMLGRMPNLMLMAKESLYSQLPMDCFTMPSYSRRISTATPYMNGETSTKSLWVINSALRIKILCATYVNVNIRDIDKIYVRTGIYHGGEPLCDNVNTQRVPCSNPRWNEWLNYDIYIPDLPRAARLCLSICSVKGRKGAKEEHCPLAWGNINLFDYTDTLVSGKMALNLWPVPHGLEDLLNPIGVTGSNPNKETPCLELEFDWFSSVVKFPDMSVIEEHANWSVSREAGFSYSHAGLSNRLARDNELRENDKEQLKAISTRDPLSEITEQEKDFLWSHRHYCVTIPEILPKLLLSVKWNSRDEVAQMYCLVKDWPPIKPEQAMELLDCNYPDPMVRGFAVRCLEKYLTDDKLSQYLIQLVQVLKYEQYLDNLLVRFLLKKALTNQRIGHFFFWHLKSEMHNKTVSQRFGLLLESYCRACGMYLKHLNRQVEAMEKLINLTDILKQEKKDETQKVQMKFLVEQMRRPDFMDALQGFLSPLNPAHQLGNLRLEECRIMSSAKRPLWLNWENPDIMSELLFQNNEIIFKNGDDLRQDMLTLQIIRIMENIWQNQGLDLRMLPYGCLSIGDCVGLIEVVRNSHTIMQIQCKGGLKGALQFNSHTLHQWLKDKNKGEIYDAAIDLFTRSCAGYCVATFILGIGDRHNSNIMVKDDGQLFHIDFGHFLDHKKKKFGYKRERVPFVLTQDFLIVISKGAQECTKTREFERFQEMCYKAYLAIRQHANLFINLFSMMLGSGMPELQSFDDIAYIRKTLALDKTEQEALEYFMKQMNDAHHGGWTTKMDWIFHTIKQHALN
Chain of PI3Kα (P27986 whole entry partner): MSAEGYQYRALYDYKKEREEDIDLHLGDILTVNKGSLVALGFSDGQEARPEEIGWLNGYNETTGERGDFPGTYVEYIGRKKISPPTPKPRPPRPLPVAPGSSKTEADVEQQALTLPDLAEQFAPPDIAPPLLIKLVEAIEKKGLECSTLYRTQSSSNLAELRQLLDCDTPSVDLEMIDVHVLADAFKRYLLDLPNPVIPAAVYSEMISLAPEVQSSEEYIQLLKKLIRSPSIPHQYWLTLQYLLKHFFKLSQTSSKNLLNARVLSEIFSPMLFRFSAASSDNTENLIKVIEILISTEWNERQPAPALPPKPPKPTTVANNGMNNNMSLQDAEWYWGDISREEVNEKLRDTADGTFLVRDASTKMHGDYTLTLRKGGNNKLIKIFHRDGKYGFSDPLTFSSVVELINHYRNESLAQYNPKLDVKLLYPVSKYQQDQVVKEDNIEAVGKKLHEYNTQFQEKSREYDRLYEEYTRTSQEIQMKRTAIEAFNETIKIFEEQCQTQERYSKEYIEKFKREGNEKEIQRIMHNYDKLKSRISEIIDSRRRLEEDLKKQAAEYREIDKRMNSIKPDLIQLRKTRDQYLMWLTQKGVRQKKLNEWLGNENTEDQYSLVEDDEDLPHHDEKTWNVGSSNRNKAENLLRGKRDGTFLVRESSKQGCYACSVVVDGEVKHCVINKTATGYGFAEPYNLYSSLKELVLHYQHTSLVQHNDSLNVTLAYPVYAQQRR
Description: 1) The compound was diluted using Echo from Labcyte company, 50 nL of the compound was transferred into an assay plate, and centrifuged at a speed of 1000 rpm for 10 sec.
2) A kinase/lipid substrate mixed solution and a kinase reaction buffer/lipid substrate mixed solution were prepared; the kinase/lipid substrate mixed solution was added into columns 3-24 of the assay plate, 3 μL per well; the kinase reaction buffer/lipid substrate mixed solution was added into columns 1-2 of the assay plat, 3 μL per well; and the plate was centrifuged at a speed of 1000 rpm for 10 sec.
3) An ATP solution was prepared, and added into the assay plate, 2 μL per well; the plate was centrifuged at a speed of 1000 rpm for 10 sec, shaken and mixed in 2nd gear mode on a plate shaker for 1 min, further centrifuged at a speed of 1000 rpm for 10 sec, and incubated for 120 min at 23° C. […]
5) A kinase detection reagent was prepared, added into the assay plate, 10 μL per well; the plate was centrifuged at a speed of 1000 rpm for 10 sec, shaken and mixed in 2nd gear mode on a plate shaker for 1 min, further centrifuged at a speed of 1000 rpm for 10 sec, incubated for 30 min at 23° C.; and then read on the multi-marker detector Envision.
IC50 results were analyzed by XLfit5 (Formula 205) of IDBS company.

[1] = tested on: human colon cancer CO-04-0032; assay: In vivo pharmacodynamics, subcutaneous xenograft tumor model of human colon cancer CO-04-0032; set-up: species or system BALB/c nude mice
Description: (§1) The studies were conducted to examine if the test drugs have in vivo efficacy in the human colon cancer CO-04-0032 animal model and the gastric cancer ST-02-0013 animal model. The descriptions about the animal feeding, feed ingredients, experimental observation, experimental indexes, experimental termination, as well as data analysis in the tests were as follows:
(§2) Animal Grouping: The animals were weighed and the tumor volume was measured prior to administration. The animals were randomly grouped according to tumor volume (randomized block design).
(§3) Experimental Indexes: The experimental indexes were used to examine whether tumor growth is inhibited, delayed or cured. Tumor diameter was measured twice a week with a vernier caliper. The tumor volume was calculated by the formula: V=0.5a×b^2, wherein a and b represent the long diameter and short diameter of a tumor, respectively. Tumor growth inhibition (TGI) of a compound was evaluated with T-C (day) and T/C (%). […]
(§4) Data Analysis: One-way ANOVA was used for comparison of three or more groups. […] All data was analyzed using SPSS 17.0. p<0.05 indicated a significant difference. […]

[2] = tested on: human gastric cancer ST-02-0013; assay: In vivo pharmacodynamics, subcutaneous xenograft tumor model of human gastric cancer ST-02-0013; set-up: species or system BALB/c nude mice
Description: as §1, §2, §3, §4

T1 sequence (P42336 whole entry): as the sequence (P42336 whole entry) above
T1 sequence (P27986 whole entry partner): as the sequence (P27986 whole entry partner) above

COc1ncc(-c2ccc3ncc(OCCN(C)C)c(=O)n3c2)cc1NS(=O)(=O)c1ccc(F)cc1Cl [Compound 1]
IC50 (PI3K (p110α)): ≤ 1 nM | IC50 (PI3Kα): 0.6 ± 0.2 nM | anti-tumor activity compared to the positive control drug BKM120 ([1]; colon cancer CO-04-0032): more excellent anti-tumor activity | increase in tumor volume ([1]; from day 15 to day 30 of the administration, CO-04-0032): almost no increase in tumor volume | increase in tumor volume ([2]; from day 15 to day 30 of the administration, ST-02-0013): almost no increase in tumor volume | anti-tumor activity compared to the positive control drug BKM120 ([2]; gastric cancer ST-02-0013): more excellent anti-tumor activity
